Test system: A375 multi-cell spheroids with HUVEC/MSC, viability
Assay: Anticancer human tumor A375 cell line growth inhibition [GQUAD];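 further: spheroids exposed to compounds for seven days before readout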
Conditions: for IC50: curve of first compound; for viability, T/C: stronger effect = lower value; active means viability on the fitted dose curve at most 10% of control; inactive means the rest
From the text: DNA G-quadruplex Stabilizer Agents in Combinations in Complex Spheroids
A high-throughput screen of multi-cell type tumor spheroids was designed to identify active combinations of DNA G-quadruplex stabilizer agents and targeted small molecules. Complex spheroids include a stromal component modeled by human endothelial cells (HUVEC) and fibroblasts modeled by human mesenchymal stem cells (MSCs). The concentration ranges selected for each drug and investigational agent were based upon clinically achievable concentrations if the clinical Cmax of the agent was known.
Compounds. The drugs and investigational agents: pidnarulex (CX-5461; NSC782164), APTO-253 (NSC789042), BRACO-19 (NSC847499), peposertib (NSC802822), ceralasertib (NSC780249), elimusertib (NSC800525), camonsertib (NSC841442), AZD-1390 (NSC803789), olaparib (NSC753686), talazoparib (NSC767125), ART-558 (NSC835418), sotorasib (NSC818433), MRTX-1133 (NSC836407), SN-38 (NSC673596), topotecan (NSC609699), etoposide (NSC141540), doxorubicin (NSC123127), gemcitabine (NSC613327), 5-fluorouracil (NSC19893), paclitaxel (NSC125973), vemurafenib (NSC761431), panobinostat (NSC761190), R-306465 (JNJ-16241199; NSC773264), adavosertib (NSC754352), TP-3654 (NSC805149), carboplatin (NSC241240), KSQ-4279 (NSC840948), and staurosporine (NSC755774) were obtained from the National Cancer Institute (NCI) Developmental Therapeutics Program Chemical Repository (34). The FDA-approved anticancer drug set is available from the NCI Developmental Therapeutics Program. […] The stock solutions were prepared in dimethyl sulfoxide (DMSO, Sigma-Aldrich, St. Louis, MO, cat. D2650) at 800-fold the tested concentration and stored at -70 degrees C prior to their use. All drugs and investigational agents were tested over a range starting from a high concentration at or near the clinical Cmax and decreasing in half-log increments. If the clinical Cmax for an agent had not been determined, the highest concentration tested was 10 microM.
2.3 Cell Culture. All cells were maintained in an incubator at 37 degrees C and 5% CO2 with 95% humidity. The PDC lines were cultured according to standard operating procedures established by the NCI PDMR. All PDCs were thawed and cultured in Matrigel-coated flasks prepared with a working solution of 1X Ham's F-12 nutrient mix, without supplementation (Invitrogen, cat. 11765054), 100 U/mL penicillin-streptomycin (Invitrogen, cat. 15140122), and 2.5% Matrigel (Corning Inc., cat. 354248) for the first three passages. The 857933-349-R-J2-PDC line was cultured in 6C/Colon 1B media, which includes advanced DMEM/F-12 (Thermo Fisher Scientific, cat. 12634028), 10 mM HEPES (Thermo Fisher Scientific, cat. 15630080), 1X GlutaMAX supplement (Thermo Fisher Scientific, cat. 35050061), 0.1 mg/mL primocin (InvivoGen, cat. ant-pm-2), 10% defined fetal bovine serum, heat inactivated (HyClone Laboratories Inc., cat. SH30070.03HI), 50% L-WRN conditioned media (ATCC, cat. CRL-3276), 1.25 mM N-Acetyl-L-cysteine (Sigma-Aldrich, cat. A9165), 10 mM nicotinamide (Sigma-Aldrich, cat. N0636), 1X B-27 supplement (Thermo Fisher Scientific, cat. 17504044), 1X N-2 supplement (Thermo Fisher Scientific, cat. 17502048), 10 microM Y-27632 dihydrochloride (Tocris Bioscience, cat. 1254), and 50 ng/mL human EGF recombinant protein (Thermo Fisher Scientific, cat. PHG0311). The 485176-168-R4-J1-PDC line was cultured in Panc media, which includes all 6C/Colon 1B media components plus 100 ng/mL human FGF-10 (Thermo Fisher Scientific, cat. 100-26), 500 nM SB-431542 (Selleckchem, cat. S1067), and gastrin (Tocris, cat. 3006).
[…]

CC(C)(O)C1CCC(Nc2ccc3ncc(-c4cccc(C(F)(F)F)c4)n3n2)CC1 (configuration not stated) + Cc1cnc(CNC(=O)c2c(=O)c3ccc(N4CCCN(C)CC4)nc3n3c2sc2ccccc23)cn1
active: viability, T/C (second compound 10 µM, first compound 10 µM) 0.26%
inactive: viability, T/C (second compound 0.0316 µM, first compound 0.0316 µM) 104% | viability, T/C (second compound 0.0316 µM, first compound 0.1 µM) 110% | viability, T/C (second compound 0.0316 µM, first compound 0.316 µM) 103% | viability, T/C (second compound 0.0316 µM, first compound 1 µM) 96.1% | viability, T/C (second compound 0.0316 µM, first compound 3.16 µM) 65.3% | viability, T/C (second compound 0.0316 µM, first compound 10 µM) 91.2% | viability, T/C (second compound 0.1 µM, first compound 0.0316 µM) 85.9% | viability, T/C (second compound 0.1 µM, first compound 0.1 µM) 79.5% | viability, T/C (second compound 0.1 µM, first compound 0.316 µM) 78.2% | viability, T/C (second compound 0.1 µM, first compound 1 µM) 54.5% | viability, T/C (second compound 0.1 µM, first compound 3.16 µM) 41% | viability, T/C (second compound 0.1 µM, first compound 10 µM) 49.1% | viability, T/C (second compound 0.316 µM, first compound 0.0316 µM) 55% | viability, T/C (second compound 0.316 µM, first compound 0.1 µM) 53.4% | viability, T/C (second compound 0.316 µM, first compound 0.316 µM) 45.5% | viability, T/C (second compound 0.316 µM, first compound 1 µM) 38.8% | viability, T/C (second compound 0.316 µM, first compound 3.16 µM) 31.7% | viability, T/C (second compound 0.316 µM, first compound 10 µM) 29.7% | viability, T/C (second compound 1 µM, first compound 0.0316 µM) 38.5% | viability, T/C (second compound 1 µM, first compound 0.1 µM) 40.9% | viability, T/C (second compound 1 µM, first compound 0.316 µM) 38% | viability, T/C (second compound 1 µM, first compound 1 µM) 31.4% | viability, T/C (second compound 1 µM, first compound 3.16 µM) 27.6% | viability, T/C (second compound 1 µM, first compound 10 µM) 25% | viability, T/C (second compound 3.16 µM, first compound 0.0316 µM) 32.5% | viability, T/C (second compound 3.16 µM, first compound 0.1 µM) 35.4% | viability, T/C (second compound 3.16 µM, first compound 0.316 µM) 33% | viability, T/C (second compound 3.16 µM, first compound 1 µM) 26.3% | viability, T/C (second compound 3.16 µM, first compound 3.16 µM) 17.5% | viability, T/C (second compound 3.16 µM, first compound 10 µM) 23.8% | viability, T/C (second compound 10 µM, first compound 0.0316 µM) 29.4% | viability, T/C (second compound 10 µM, first compound 0.1 µM) 27.5% | viability, T/C (second compound 10 µM, first compound 0.316 µM) 28.9% | viability, T/C (second compound 10 µM, first compound 1 µM) 21.2% | viability, T/C (second compound 10 µM, first compound 3.16 µM) 8.8%
124 nM: IC50 (second compound 0.316 µM)
1730 nM: IC50 (second compound 0.1 µM)
< 31.6 nM: IC50 (second compound 1 µM) | IC50 (second compound 3.16 µM) | IC50 (second compound 10 µM)
> 10000 nM: IC50 (second compound 0.0316 µM)

— PubChem BioAssay AID2060485 (Molecular Pharmacology Branch, DTP, NCI, 2025)
